Laboratory results: patent US10959984B2, “Methods for treating cancer with RORγ inhibitors” (THE REGENTS OF THE UNIVERSITY OF CALIFORNIA, priority 2015, dated 2021)

What was measured:
AR = assay: ARE reporter gene assay (5xARE-tk-luc) in 22Rv1 cells; assay type: cell-based, human
Method: Transient transfection and reporter gene assays were performed as previously described^49 with the following modifications. ARE reporter gene assays were performed by transfecting 22Rv1 cells with 5×ARE-tk-luc, pcDNA3.1-hAR and pCMV-β-gal for normalization. For transfection with constructs omitted for specific gene expression, corresponding empty vectors were used to ensure equal amount of total DNA used. Briefly, 22Rv1 cells seeded in 96-well plates in hormone-deprived medium supplemented with 10% cds-FBS (Hyclone) were transfected with lipofectamine 2000 (Life technology, Carlsbad, Calif., USA) and the indicated plasmid DNA. Cells were then treated at 12 hours after transfection with 3 nm R1881, indicated concentrations of RORγ antagonists or ENZ for another 24 hours before harvested for β-gal and luciferase assays. For RORE reporter gene assays, 4×AR-RORE-tk-luc was constructed by inserting four copies of the newly identified AR-RORE TTCTGGGTCA (SEQ ID NO: 1) into tk-luciferase reporter vector. AR-RORE mutant form (AR-RORE mut) contains sequences mutated from TTCTGGGTCA (SEQ ID NO: 1) to TTCTGAACGA (SEQ ID NO: 2). […] The luciferase and β-galactosidase were then analyzed with a Luciferase Assay Substrate (Promega) and Luminescent β-galactosidase Detection Kit II (Clontech). […]

22Rv1 xenografts = assay: 22Rv1 xenograft tumor growth; assay type: in vivo, mice; conditions: nude mice; SR2211 5 mg/kg i.p., 8k/E11 10 and 20 mg/kg i.p., five times per week (FIG. 3A)
Method: (§1) Four-week-old male SCID C.B17 mice (for C4-2B and VCaP) or BALB/c nu/nu athymic mice (for 22Rv11 and PC-3) were purchased from Harlan Inc. For establishing tumors, 2×10^6 cells were suspended in total of 100 μL PBS/Matrigel (1:1) and implanted subcutaneously into the dorsal flank on both sides of the mice. Animal group size of six or more was estimated to have a high statistic power, based on power calculation (http://www.biomath.info/power/) and previous studies involving the same xenograft models^34,68. When the tumor volume was approximately 80 mm^3, the mice were randomized and then treated intraperitoneally (i.p.) with 100 μl of either vehicle or RORγ antagonists SR2211, XY011/8k (in a formulation of 15% Cremophor EL, Calbiochem, 82.5% PBS, and 2.5% DMSO) for five times per week. Tumor growth was monitored by calipers with volume calculated using the equation: (π/6 (length×width2)). Body weight during the course of the study was also monitored. At the end of the studies mice were killed and tumors were dissected and weighed. Additionally, prostate, seminal vesicle, testis, kidney, heart, lung, liver, epididymal fat pad and spleen were harvested and weighed. To assess the effect of combining RORγ antagonists and ENZ on the growth of castrated-resistant VCaP xenografts (CRPC-VCaP), first, SCID C.B17 mice were injected with VCaP cells as above to establish the tumors. Then, mice bearing tumors of approximately 180 mm^3 were surgically castrated. They were then observed for tumor regression. Once tumors grew back to the pre-castration size, mice were randomized and treated with vehicle, 5 mg kg^−1 SR2211, 10 mg kg^+1 ENZ or a combination of 5 mg kg^−1 SR2211 and 10 mg kg^−1 ENZ. ENZ was given by oral gavage as previously described^68 and SR2211 was administered i.p as above. Mice were excluded from the study if bearing no tumor or tumor with size twice larger or smaller than the mean, at the time of randomization.

CRPC-VCaP xenografts = assay: Castration-resistant VCaP (CRPC-VCaP) xenograft tumor growth; assay type: in vivo; conditions: castrated mice, ENZ alone, 10 mg/kg oral
Method: as §1, with “Then, mice bearing tumors of approximately 180 mm^3 were surgically castrated. They were then observed for tumor regression. Once tumors grew back to the pre-castration size, mice were randomized and treated with vehicle, 5 mg kg^−1 SR2211, 10 mg kg^+1 ENZ or a combination of 5 mg kg^−1 SR2211 and 10 mg kg^−1 ENZ. ENZ was given by oral gavage as previously described^68 and SR2211 was administered i.p as above. Mice were excluded from the study if bearing no tumor or tumor with size twice larger or smaller than the mean, at the time of randomization.” left out

[1] = mouse, in vivo
Method: as §1, with “Then, mice bearing tumors of approximately 180 mm^3 were surgically castrated. They were then observed for tumor regression. Once tumors grew back to the pre-castration size, mice were randomized and treated with vehicle, 5 mg kg^−1 SR2211, 10 mg kg^+1 ENZ or a combination of 5 mg kg^−1 SR2211 and 10 mg kg^−1 ENZ. ENZ was given by oral gavage as previously described^68 and SR2211 was administered i.p as above. Mice were excluded from the study if bearing no tumor or tumor with size twice larger or smaller than the mean, at the time of randomization.” left out

SMILES: CNC(=O)c1ccc(N2C(=S)N(c3ccc(C#N)c(C(F)(F)F)c3)C(=O)C2(C)C)cc1F [ENZ, enzalutamide]
- response of multimerized ARE-driven reporter (AR): repressed
- growth of xenograft tumors (22Rv1 xenografts): did not show any significant inhibitory effect
- CRPC tumor growth (CRPC-VCaP xenografts): only marginally effective
- tolerability based on weight of whole body and vital organs, and general behaviors [1]: well tolerated
